Results from patent US6410041B1, “Culturing cells in presence of amphipathic weak bases and/or cations and multiple drug resistance inhibitor containing reserpine” (priority 1998, dated 2002).
In brackets after ≈: the same amount, converted by molar mass. Several values for one entry are separate records, joined by “and”; a condition that tells them apart may be missing. Equal values may be shown once. Read-outs that look alike come from different tables or passages of the source.

What was measured:
S. aureus = test: MICs of antimicrobials with small molecule MDR inhibitor (I) and high pH; assay type: cell-based, Staphylococcus aureus; settings: for Potentiation factor (pH 7/(pH 9 + I)): pH 7 vs pH 9 + I
Experimental: (§1) Determination of minimal inhibitory concentrations (MICs). MICs were determined by serial two-fold dilution of antimicrobials in Mueller-Hinton broth containing chloramphenicol ([…]). […] Around 10^5 cells were inoculated in 1 ml of medium for the test. MICs were read after 18 hours of incubation at 37 C. with aeration. The 50% inhibitory concentration (IC50) was determined by growing cells in microtiter plate wells and reading the optical density after overnight growth at 650 nm.

[1] = system: Staphylococcus aureus RN 4222 (WT); test: MIC determination in wild type S. aureus; assay type: cell-based; settings: for effect of pH 9 on sensitivity / effectiveness: change of pH from 7 to 9
Experimental: as §1

[2] = system: Staphylococcus aureus KLE 820 (norA−); test: microbe, parasite or virus in culture; assay type: cell-based; settings: for effect of addition of reserpine on sensitivity to drugs: norA mutant; for Sensitivity of norA- as compared to the wild type: in the absence of reserpine
From the text: Disruption of the norA gene. Chloramphenicol acetyltransferase (CAT) gene was isolated by digesting plasmid pLI50 (10) with Sau3A (New England Biolabs). The CAT gene was cloned into the BamHI site of plasmid pSP72 (Promega) to yield plasmid PCH22. Chromosomal DNA from S. aureus RN4220 was isolated according to the protocol of Qiagen, Inc. Part of the 1050 bp norA gene lacking a 80 bp N-terminus and a 20 bp C-terminus was PCR-amplified from chromosomal DNA using primer A:5′-[…]-[…] and primer B:5′-[…]. This fragment was cloned into the EcoRI/EcoRV site of PCH22 to yield plasmid PCH23. S. aureus were transformed by PCH23 using electroporation (11). Cells were plated on trypticase soy agar (TSA) with chloramphenicol. A transformant colony was picked after 24 hours of incubation at 37 C., regrown, plated on CAM medium and a large colony was picked for further work.
as §1

[3] = Staphylococcus aureus, pH 7, read-out: MIC
[4] = Staphylococcus aureus, pH 9, read-out: MIC
[5] = Staphylococcus aureus, RN 4222 (WT), pH 7.2, read-out: MIC
[6] = Staphylococcus aureus, pH 7.2, KLE 820 (norA−), pH 7.2
[7] = Staphylococcus aureus, pH 9, KLE 820 (norA−), pH 9
[8] = RN 4222 (WT), +R (20 μg/mL reserpine)
[9] = KLE 820 (norA−), +R (20 μg/mL reserpine)
[10] = RN 4222 (WT), −R (no reserpine)
[11] = KLE 820 (norA−), −R (no reserpine)

COc1cc2c(cc1OC)-c1cc3ccc(OC)c(OC)c3c[n+]1CC2 [Palmatine]
substrate of MDR pumps (S. aureus; cationic plant antimicrobial alkaloids): good substrates of MDR pumps | MIC (S. aureus; pH 7): 100 µg/mL | MIC (S. aureus; pH 7 + I (10 μg/mL)): 1.6 µg/mL | Potentiation factor (pH 7/(pH 9 + I)) (S. aureus): 1,250 | MIC (S. aureus; pH 9): 25 µg/mL | MIC (S. aureus; pH 9 + I): 0.08 µg/mL | MIC ([1]; RN 4222 (WT), pH 7.2): 200 µg/mL | MIC ([1]; RN 4222 (WT), pH 9): 12.5 µg/mL | MIC ([2]; KLE 820 (norA−), pH 7.2): 50 µg/mL | MIC ([2]; KLE 820 (norA−), pH 9): 0.78 µg/mL | substrate of NorA ([2]; based on comparison of MIC from wild type and norA−): substrates of NorA

N=C(N)c1ccc(OCCCCCOc2ccc(C(=N)N)cc2)cc1 [Pentamidine]
MIC (S. aureus; [3]): 10 µg/mL (≈ 29.4 µM) | MIC (S. aureus; [4]): 0.3 µg/mL (≈ 0.881 µM) | MIC (S. aureus; pH 7 + I (10 μg/mL)): 0.33 µg/mL | Potentiation factor (pH 7/(pH 9 + I)) (S. aureus): 500 | MIC (S. aureus; pH 9 + I): 0.02 µg/mL | MIC ([1]; Staphylococcus aureus, pH 9): 0.312 µg/mL (≈ 0.918 µM) | MIC [1, 5]: 10 µg/mL (≈ 29.4 µM) | effect of pH 9 on sensitivity / effectiveness [1]: significantly increased the effectiveness | MIC [2, 6]: 0.312 µg/mL (≈ 0.918 µM) | MIC [2, 7]: 0.0097 µg/mL (≈ 0.0285 µM) | MIC ([2]; Staphylococcus aureus, pH 9, pH 9 and norA mutation): 0.01 µg/mL (≈ 0.0294 µM) | increase in sensitivity, pH 9 combined with norA mutation ([2]; norA− at pH 9 vs wild type at neutral pH): 1,000 fold | increase in sensitivity by norA mutation ([2]; norA− vs wild type): 30 fold and 33 fold

COc1ccc(C[C@H](N)C(=O)N[C@H]2[C@@H](O)[C@H](n3cnc4c(N(C)C)ncnc43)O[C@@H]2CO)cc1 [Puromycin]
MIC [1, 5]: 20 µg/mL (≈ 42.4 µM) | MIC ([1]; Staphylococcus aureus, RN 4222 (WT), pH 9, read-out: MIC): 2.5 µg/mL (≈ 5.3 µM) | Sensitivity norA− at pH 9 vs. WT at pH 7.2 [2]: 8

COC(=O)[C@H]1[C@H]2C[C@@H]3c4[nH]c5cc(OC)ccc5c4CCN3C[C@H]2C[C@@H](OC(=O)c2cc(OC)c(OC)c(OC)c2)[C@@H]1OC [Reserpine]
effect of addition of reserpine on sensitivity to drugs ([1]; wild type): increased the sensitivity of the wild type to drugs | effect of addition of reserpine on sensitivity to drugs [2]: virtually no effect | effect of addition of reserpine on sensitivity to drugs ([2]; listed as Reserpin): failed to further increase sensitivity

C[n+]1cc2c3c(ccc2c2ccc4cc5c(cc4c21)OCO5)OCO3 [Sanguinarine]
MIC (S. aureus; [3]): 2.5 µg/mL | MIC (S. aureus; [4]): 1.25 µg/mL | potentiation by high pH and MDR inhibitor (S. aureus; high pH combined with MDR inhibitor / MDR inactivation): approximately 100 fold | MIC (S. aureus; pH 7 + I (10 μg/mL)): 0.67 µg/mL | Ratio (S. aureus; pH 7 vs pH 7 + I): 3.7 | Potentiation factor (pH 7/(pH 9 + I)) (S. aureus): 16.6 | MIC (S. aureus; pH 9 + I): 0.15 µg/mL | Ratio (S. aureus; pH 9 vs pH 9 + I): 8.3

[Br-].c1ccc([P+](c2ccccc2)(c2ccccc2)c2ccccc2)cc1 [TPP, tetraphenylphosphonium bromide]
MIC [1, 8]: 7.8 µg/mL | MIC ([1]; Staphylococcus aureus): 15.6 µg/mL | MIC ([1]; Staphylococcus aureus, pH 7.2): 15.6 µg/mL | MIC ([1]; Staphylococcus aureus, pH 9): 0.48 µg/mL | MIC [2, 9]: 1.9 µg/mL | MIC ([2]; Staphylococcus aureus, KLE 820 (norA−), −R (no reserpine)): 1.9 µg/mL | MIC [2, 6]: 1.98 µg/mL | MIC [2, 7]: 0.12 µg/mL | Sensitivity of norA- as compared to the wild type [2]: 8 | Sensitivity norA− at pH 9 vs. WT at pH 7.2 [2]: 130

CN(C)[C@@H]1C(O)=C(C(N)=O)C(=O)[C@@]2(O)C(O)=C3C(=O)c4c(O)cccc4[C@@](C)(O)[C@H]3C[C@@H]12 [Tetracycline]
MIC ([1]; Staphylococcus aureus, RN 4222 (WT), −R (no reserpine), read-out: MIC): 0.097 µg/mL (≈ 0.218 µM) | Sensitivity of norA- as compared to the wild type [2]: 1

CN[C@H](CC(C)C)C(=O)N[C@H]1C(=O)N[C@@H](CC(N)=O)C(=O)N[C@H]2C(=O)N[C@H]3C(=O)N[C@H](C(=O)N[C@H](C(=O)O)c4cc(O)cc(O)c4-c4cc3ccc4O)[C@H](O)c3ccc(c(Cl)c3)Oc3cc2cc(c3O[C@@H]2O[C@H](CO)[C@@H](O)[C@H](O)[C@H]2O[C@H]2C[C@](C)(N)[C@H](O)[C@H](C)O2)Oc2ccc(cc2Cl)[C@H]1O [Vancomycin]
MIC ([1]; Staphylococcus aureus): 1.5 µg/mL (≈ 1.04 µM) | MIC ([2]; Staphylococcus aureus): 1.5 µg/mL (≈ 1.04 µM) | Sensitivity of norA- as compared to the wild type [2]: 1

Acriflavine
MIC [1, 8]: 10 µg/mL | MIC [1, 10]: 20 µg/mL | MIC [2, 9]: 2.5 µg/mL | MIC [2, 11]: 2.5 µg/mL | Sensitivity of norA- as compared to the wild type [2]: 8

Benzalkonium Chloride
MIC (S. aureus; pH 7): 0.67 µg/mL | MIC (S. aureus; pH 7 + I (10 μg/mL)): 0.08 µg/mL | Ratio (S. aureus; pH 7 vs pH 7 + I): 8.3 | Potentiation factor (pH 7/(pH 9 + I)) (S. aureus): 134 | MIC (S. aureus; pH 9): 0.16 µg/mL | MIC (S. aureus; pH 9 + I): <0.005 µg/mL | Ratio (S. aureus; pH 9 vs pH 9 + I): 32 | MIC ([1]; RN 4222 (WT), pH 7.2): 0.67 µg/mL | MIC ([1]; RN 4222 (WT), pH 9): 0.08 µg/mL | effect of pH 9 on sensitivity / effectiveness [1]: significantly increased the effectiveness | MIC ([2]; KLE 820 (norA−), pH 7.2): 0.16 µg/mL | MIC ([2]; KLE 820 (norA−), pH 9): 0.0104 µg/mL | Sensitivity norA− at pH 9 vs. WT at pH 7.2 [2]: 64

Gentamycin
MIC [1, 10]: 0.62 µg/mL | MIC [2, 11]: 0.62 µg/mL | Sensitivity of norA- as compared to the wild type [2]: 1
